Measurements as given in patent publication US7449465B2, “Triazolopyrimidine derivatives as glycogen synthase kinase 3 inhibitors” (Janssen Pharmaceutica, N.V., priority 2003, dated 2008).
Counter-ions that a name gives are not always drawn.

Assays:
GSK3alpha = GSK3alpha (Homo sapiens, UniProt P49840); experiment: GSK3alpha assay (same as the GSK3beta assay, 0.25 ng/μl GSK3alpha); type: biochemical; conditions: ranges of pIC50 (−log IC50 (M)), 1 μM ATP, read-out: GSK3a pIC50 (converted)
Description: (§1) GSK3beta assays were performed at room temperature in a 100 μl reaction volume of 25 mM Tris (pH 7.4) containing 10 mM MgCl2.6H2O, 1 mM DTI, 0.1 mgiml BSA, 5% glycerol and containing 5.7 ng/μl GSK3β, 5 μM biotinylated phosphorylated CREB peptide, 1 μM ATP, 0.85 μCi/ml ATP-P^33 and a suitable amount of a test compound of formula (I). After one hour, the reaction was terminated by adding 70 μl of Stop mix (0.1 mM ATP, 5 mg/ml streptavidin coated PVT SPA bead pH 11.0). The beads to which the phosphorylated CREB peptide is attached were allowed to settle overnight and the radioactivity of the beads was counted in a microtiterplate scintillation counter and compared with the results obtained in a control experiment (without the presence of a test compound) in order to determine the percentage of GSK3β inhibition. The IC50 value, i.e. the concentration (M) of the test compound at which 50% of GSK3β is inhibited, was calculated from the dose response curve obtained by performing the above-described GSK3β assay in the presence of different amounts of the test compound.
The GSK3alpha assay was performed in the same way as described above for the GSK3beta assay except for the concentration of GSK3alpha which is 0.25 ng/μl.

GSK3β = GSK3β (Homo sapiens, UniProt P49841); experiment: GSK3beta assay (SPA, biotinylated phosphorylated CREB peptide, ATP-P33); type: biochemical; conditions: ranges of pIC50 (−log IC50 (M)); 1 μM ATP, room temperature, one hour; read-out: GSK3b pIC50 (converted)
Description: as §1

Chain of GSK3alpha (P49840 whole entry, species assumed): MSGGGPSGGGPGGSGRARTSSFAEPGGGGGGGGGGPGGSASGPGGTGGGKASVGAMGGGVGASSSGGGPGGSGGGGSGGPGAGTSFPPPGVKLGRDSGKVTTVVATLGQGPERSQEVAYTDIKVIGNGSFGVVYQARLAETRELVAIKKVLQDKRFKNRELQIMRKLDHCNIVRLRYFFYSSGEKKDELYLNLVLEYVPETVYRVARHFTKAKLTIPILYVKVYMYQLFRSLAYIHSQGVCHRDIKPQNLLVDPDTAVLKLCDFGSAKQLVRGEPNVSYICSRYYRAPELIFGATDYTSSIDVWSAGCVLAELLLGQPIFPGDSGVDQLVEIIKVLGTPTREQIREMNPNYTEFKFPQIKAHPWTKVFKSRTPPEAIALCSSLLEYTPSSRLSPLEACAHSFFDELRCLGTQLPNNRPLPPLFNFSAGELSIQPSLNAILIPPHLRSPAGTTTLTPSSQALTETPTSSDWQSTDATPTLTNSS
Chain of GSK3β (P49841 whole entry, species assumed): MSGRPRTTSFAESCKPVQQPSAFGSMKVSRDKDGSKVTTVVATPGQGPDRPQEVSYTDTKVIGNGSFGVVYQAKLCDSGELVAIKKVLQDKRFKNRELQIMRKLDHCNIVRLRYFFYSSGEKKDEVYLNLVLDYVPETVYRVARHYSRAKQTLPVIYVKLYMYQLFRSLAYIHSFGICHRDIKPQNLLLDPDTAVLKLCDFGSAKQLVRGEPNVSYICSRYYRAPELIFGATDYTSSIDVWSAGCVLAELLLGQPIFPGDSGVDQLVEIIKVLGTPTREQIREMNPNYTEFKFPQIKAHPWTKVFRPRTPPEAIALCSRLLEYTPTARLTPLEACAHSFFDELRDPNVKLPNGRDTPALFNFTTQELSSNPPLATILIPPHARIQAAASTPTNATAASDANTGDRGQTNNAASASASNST

SMILES | melting point | IC50 (GSK3alpha) | IC50 (GSK3β)
CN1CCN(c2cccc(Nc3ncc4nnn(-c5cccc(F)c5)c4n3)c2)CC1 (as salt: HCl) [Compound 36] | > 250 °C | – | –
Brc1cccc(-n2nnc3cnc(Nc4cccc(C5=NCNC5)c4)nc32)c1 (as salt: HCl) [Compound 43] | > 260 °C | – | –
NCc1cccc(-n2nnc3cnc(Nc4cccc(-c5cnco5)c4)nc32)c1 (as salt: HCl) [Compound 114] | > 250 °C | – | –
O=c1[nH]nc(-c2cccc(Nc3ncc4nnn(-c5cccc(F)c5)c4n3)c2)[nH]1 [Compound 1] | > 260 °C | < 1e-08 M | < 1e-08 M
CN1CCN(c2ccc(Nc3ncc4nnn(C5CCCCC5)c4n3)cc2)CC1 [Compound 4] | 167 °C | – | –
O=[N+]([O-])c1cc(Nc2ncc3nnn(C4CCCCC4)c3n2)ccc1N1CCOCC1 [Compound 5] | 161.9 °C | – | 1e-08 to 1e-07 M
OCCc1cccc(-n2nnc3cnc(Nc4ccc(Nc5ncccn5)cc4)nc32)c1 [Compound 84] | – | < 1e-08 M | < 1e-08 M
OCCc1ccc(-n2nnc3cnc(Nc4ccc(N5CCOCC5)cc4)nc32)cc1 [Compound 85] | – | < 1e-08 M | > 1e-07 M
N#CCc1cccc(-n2nnc3cnc(Nc4cccc(-c5cnco5)c4)nc32)c1 [Compound 86] | – | < 1e-08 M | < 1e-08 M
CN1CCN(Cc2ccc(Nc3ncc4nnn(-c5cccc(CC#N)c5)c4n3)cc2)CC1 [Compound 89] | – | < 1e-08 M | 1e-08 to 1e-07 M
N#CCc1cccc(-n2nnc3cnc(Nc4ccc(CN5CCC(O)CC5)cc4)nc32)c1 [Compound 90] | – | < 1e-08 M | < 1e-08 M
CN1CCN(C(=O)c2ccc(Nc3ncc4nnn(-c5cccc(CC#N)c5)c4n3)cc2)CC1 [Compound 91] | – | < 1e-08 M | < 1e-08 M
N#CCc1cccc(-n2nnc3cnc(Nc4ccc(C(=O)NCCN5CCOCC5)cc4)nc32)c1 [Compound 92] | – | < 1e-08 M | < 1e-08 M
CN1CCN(CCOc2ccc(Nc3ncc4nnn(-c5cccc(CC#N)c5)c4n3)cc2)CC1 [Compound 93] | – | 1e-08 to 1e-07 M | 1e-08 to 1e-07 M
CN1CCN(CCCOc2ccc(Nc3ncc4nnn(-c5cccc(CC#N)c5)c4n3)cc2)CC1 [Compound 94] | – | < 1e-08 M | < 1e-08 M
NC(=O)Cc1cccc(-n2nnc3cnc(Nc4cccc(-c5cnco5)c4)nc32)c1 [Compound 95] | – | < 1e-08 M | < 1e-08 M
Nc1nccc(-c2cccc(Nc3ncc4nnn(-c5cccc(CO)c5)c4n3)c2)n1 [Compound 97] | – | < 1e-08 M | < 1e-08 M
COCc1cccc(-n2nnc3cnc(Nc4cccc(-c5cnco5)c4)nc32)c1 [Compound 98] | – | < 1e-08 M | < 1e-08 M
COCc1cccc(-n2nnc3cnc(Nc4cccc(-c5nnnn5C)c4)nc32)c1 [Compound 99] | – | < 1e-08 M | < 1e-08 M
COCc1cccc(-n2nnc3cnc(Nc4cccc(-c5ccnc(N)n5)c4)nc32)c1 [Compound 100] | – | < 1e-08 M | < 1e-08 M

SMILES | melting point | IC50 (GSK3alpha) | IC50 (GSK3β)
COCc1cccc(-n2nnc3cnc(Nc4ccc(CN5CCN(C)CC5)cc4)nc32)c1 [Compound 101] | – | < 1e-08 M | 1e-08 to 1e-07 M
COCc1cccc(-n2nnc3cnc(Nc4ccc(CN5CCC(O)CC5)cc4)nc32)c1 [Compound 102] | – | 1e-08 to 1e-07 M | 1e-08 to 1e-07 M
COCc1cccc(-n2nnc3cnc(Nc4ccc(C(=O)N5CCN(C)CC5)cc4)nc32)c1 [Compound 103] | – | < 1e-08 M | < 1e-08 M
COCc1cccc(-n2nnc3cnc(Nc4ccc(C(=O)NCCN5CCOCC5)cc4)nc32)c1 [Compound 104] | – | < 1e-08 M | < 1e-08 M
COCc1cccc(-n2nnc3cnc(Nc4ccc(OCCN5CCN(C)CC5)cc4)nc32)c1 [Compound 105] | – | 1e-08 to 1e-07 M | 1e-08 to 1e-07 M
COCc1cccc(-n2nnc3cnc(Nc4ccc(OCCCN5CCN(C)CC5)cc4)nc32)c1 [Compound 106] | – | < 1e-08 M | 1e-08 M
COCCOCc1cccc(-n2nnc3cnc(Nc4ccc(N5CCN(C)CC5)cc4)nc32)c1 [Compound 108] | – | 1e-08 to 1e-07 M | < 1e-08 M
COCCOCc1cccc(-n2nnc3cnc(Nc4ccc(CN5CCN(C)CC5)cc4)nc32)c1 [Compound 109] | – | 1e-08 to 1e-07 M | 1e-08 to 1e-07 M
COCCOCc1cccc(-n2nnc3cnc(Nc4ccc(CN5CCC(O)CC5)cc4)nc32)c1 [Compound 110] | – | 1e-08 to 1e-07 M | 1e-08 to 1e-07 M
COCCOCc1cccc(-n2nnc3cnc(Nc4ccc(C(=O)N5CCN(C)CC5)cc4)nc32)c1 [Compound 111] | – | < 1e-08 M | < 1e-08 M
COCCOCc1cccc(-n2nnc3cnc(Nc4ccc(C(=O)NCCN5CCOCC5)cc4)nc32)c1 [Compound 112] | – | < 1e-08 M | < 1e-08 M
COCCOCc1cccc(-n2nnc3cnc(Nc4ccc(OCCCN5CCN(C)CC5)cc4)nc32)c1 [Compound 113] | – | 1e-08 M | 1e-08 to 1e-07 M
NCc1cccc(-n2nnc3cnc(Nc4cccc(-c5cnco5)c4)nc32)c1 [Compound 114] | – | < 1e-08 M | < 1e-08 M
CC(=O)NCc1cccc(-n2nnc3cnc(Nc4cccc(-c5nnnn5C)c4)nc32)c1 [Compound 116] | – | < 1e-08 M | < 1e-08 M
CC(=O)NCc1cccc(-n2nnc3cnc(Nc4cccc(-c5ccnc(N)n5)c4)nc32)c1 [Compound 117] | – | < 1e-08 M | > 1e-09 M
CC(C)CC(=O)NCc1cccc(-n2nnc3cnc(Nc4cccc(-c5cnco5)c4)nc32)c1 [Compound 120] | – | 1e-08 to 1e-07 M | 1e-08 to 1e-07 M
CC(C)CC(=O)NCc1cccc(-n2nnc3cnc(Nc4cccc(-c5ccnc(N)n5)c4)nc32)c1 [Compound 121] | – | 1e-08 M | < 1e-08 M
COCC(=O)NCc1cccc(-n2nnc3cnc(Nc4ccc(-c5cnco5)cc4)nc32)c1 [Compound 123] | – | < 1e-08 M | < 1e-08 M
CCOC(=O)NCc1cccc(-n2nnc3cnc(Nc4cccc(-c5cnco5)c4)nc32)c1 [Compound 125] | – | < 1e-08 M | < 1e-08 M
COc1cccc(-n2nnc3cnc(Nc4cccc(-c5nnn[nH]5)c4)nc32)c1 [Compound 127] | – | < 1e-08 M | 1e-08 to 1e-07 M

SMILES | melting point | IC50 (GSK3alpha) | IC50 (GSK3β)
COc1cccc(-n2nnc3cnc(Nc4cccc(-c5nnnn5C)c4)nc32)c1 [Compound 128] | – | < 1e-08 M | < 1e-08 M
COc1cccc(-n2nnc3cnc(Nc4cccc(N5CCN(C)CC5)c4)nc32)c1 [Compound 129] | – | 1e-08 to 1e-07 M | 1e-08 to 1e-07 M
COCCOc1cccc(-n2nnc3cnc(Nc4ccc(N5CCN(C)CC5)cc4)nc32)c1 [Compound 130] | – | 1e-08 to 1e-07 M | 1e-08 to 1e-07 M
COCCOc1cccc(-n2nnc3cnc(Nc4ccc(CN5CCN(C)CC5)cc4)nc32)c1 [Compound 131] | – | 1e-08 to 1e-07 M | 1e-08 to 1e-07 M
COCCOc1cccc(-n2nnc3cnc(Nc4ccc(C(=O)N5CCN(C)CC5)cc4)nc32)c1 [Compound 133] | – | < 1e-08 M | 1e-08 to 1e-07 M
COCCOc1cccc(-n2nnc3cnc(Nc4ccc(C(=O)NCCN5CCOCC5)cc4)nc32)c1 [Compound 134] | – | < 1e-08 M | 1e-08 to 1e-07 M
COCCOc1cccc(-n2nnc3cnc(Nc4ccc(OCCCN5CCN(C)CC5)cc4)nc32)c1 [Compound 135] | – | 1e-08 to 1e-07 M | 1e-08 to 1e-07 M
O=S(=O)(NCCNc1ncccn1)c1cccc(Nc2ncc3nnn(-c4cccc(F)c4)c3n2)c1 [Compound 136] | – | 1e-08 to 1e-07 M | 1e-08 to 1e-07 M
Fc1cccc(-n2nnc3cnc(Nc4ccc(-c5nn[nH]n5)cc4)nc32)c1 [Compound 138] | – | < 1e-08 M | < 1e-08 M
CN1CCN(CCOc2ccc(Nc3ncc4nnn(-c5cccc(F)c5)c4n3)cc2)CC1 [Compound 140] | – | < 1e-08 M | 1e-08 to 1e-07 M
Fc1cccc(-n2nnc3cnc(Nc4ccc(OCCN5CCOCC5)cc4)nc32)c1 [Compound 141] | – | < 1e-08 M | 1e-08 to 1e-07 M
Fc1cccc(-n2nnc3cnc(Nc4ccc(OCCCN5CCCCC5)cc4)nc32)c1 [Compound 142] | – | 1e-08 to 1e-07 M | 1e-08 to 1e-07 M
CN1CCN(CCCOc2ccc(Nc3ncc4nnn(-c5cccc(F)c5)c4n3)cc2)CC1 [Compound 143] | – | < 1e-08 M | 1e-08 to 1e-07 M
Fc1cccc(-n2nnc3cnc(Nc4ccc(OCCCN5CCOCC5)cc4)nc32)c1 [Compound 144] | – | < 1e-08 M | 1e-08 to 1e-07 M
NS(=O)(=O)c1cccc(-n2nnc3cnc(Nc4cccc(-c5cnco5)c4)nc32)c1 [Compound 145] | – | < 1e-08 M | < 1e-08 M
Cn1nnnc1-c1cccc(Nc2ncc3nnn(-c4cccc(S(N)(=O)=O)c4)c3n2)c1 [Compound 146] | – | < 1e-08 M | 1e-08 M
Nc1nccc(-c2cccc(Nc3ncc4nnn(-c5cccc(S(N)(=O)=O)c5)c4n3)c2)n1 [Compound 147] | – | < 1e-08 M | < 1e-08 M
Fc1cccc(-n2nnc3cnc(Nc4cccc(-c5ncc[nH]5)c4)nc32)c1 [Compound 149] | – | < 1e-08 M | < 1e-08 M
Nc1nccc(-c2cccc(Nc3ncc4nnn(-c5ccccc5)c4n3)c2)n1 [Compound 151] | – | < 1e-08 M | < 1e-08 M
Cn1cc(Br)c(-c2cccc(Nc3ncc4nnn(-c5cccc(CCO)c5)c4n3)c2)n1 [Compound 152] | – | < 1e-08 M | < 1e-08 M
